From US20060115492A1, “Pharmaceutical composition and health food comprising extract of Phellinus sp. PL3 or phellinsin a isolated from the same as an effective component for prevention and treatment of cardiovascular disease” (Korea Research Institute of Bioscience and Biotechnology, priority 2004, published 2006)

Assays:
DPPH radical scavenging = assay type: biochemical; conditions: for IC50: after 35 min, read-out: IC50 (DPPH free radical scavenging); for Radical scavenging activity (%): 100 μM solutions in methanol
Method: Phellinsin A and 1-diphenyl-2-picryl hydrazyl (DPPH) were dissolved in methanol to be adjusted to 100 μM of concentration, respectively. Then, 1 mL of phellinsin A solution was mixed with 2 mL of DPPH solution and stirred well. […]

[1] = test system: macrophage-mediated LDL oxidation (THP-1 cells); assay: Macrophage-mediated LDL oxidation (THP-1 cells, TBARS); assay type: cell-based; conditions: for MDA nmol/mg LDL protein: LDL + cell + Cu2+, control 210.6 ± 10.7
Method: Then, the resulting cells were cultivated for 3 days and activated by using macrophages sufficiently.
Phellinsin A was dissolved in DMSO and diluted in various concentrations before used in the experiment. In order to catalyze the macrophage-mediated LDL oxidation, 2μL of 0.5 mM CuSO4 was added to the phellinsin A solution. Incubation was then carried out for 24 hours at 37° C. under a humidified atmosphere containing 5% CO2.

LDL [2] = assay: Anti-oxidant activity by monitoring conjugated dienes continuously (LDL oxidation, absorbance at 234 nm); assay type: biochemical, human; conditions: control lag time 44 min
Method: 240 μL of LDL (120 μg/mL of protein concentration) separated in Experimental Example 1 was mixed with 2,510 μL of 10 mM phosphate buffer solution and added with 10 μL of phellinsin A solution prepared in 2 kinds of concentration (2 μM and 5 μM), respectively. At this moment, the phellinsin A was utilized after dissolved in DMSO and for a negative control, only solvent was added. For a positive control, probucol was added before use.
Then, 240 μL of 0.125 mM CuSO4 was added to the resulting solution, reacted at 37° C. for 4 hours and coincidently, measured by monitoring the absorbance at 234 nm with a UV-visible spectrophotometer at 10 min intervals.

[3] = target: T1, chitin synthase 2 of Saccharomyces cerevisiae (Saccharomyces cerevisiae, UniProt P14180); conditions: J. Antibiotics, 2000, 9: 903-911; cited from earlier work
T1 sequence (P14180 1-963): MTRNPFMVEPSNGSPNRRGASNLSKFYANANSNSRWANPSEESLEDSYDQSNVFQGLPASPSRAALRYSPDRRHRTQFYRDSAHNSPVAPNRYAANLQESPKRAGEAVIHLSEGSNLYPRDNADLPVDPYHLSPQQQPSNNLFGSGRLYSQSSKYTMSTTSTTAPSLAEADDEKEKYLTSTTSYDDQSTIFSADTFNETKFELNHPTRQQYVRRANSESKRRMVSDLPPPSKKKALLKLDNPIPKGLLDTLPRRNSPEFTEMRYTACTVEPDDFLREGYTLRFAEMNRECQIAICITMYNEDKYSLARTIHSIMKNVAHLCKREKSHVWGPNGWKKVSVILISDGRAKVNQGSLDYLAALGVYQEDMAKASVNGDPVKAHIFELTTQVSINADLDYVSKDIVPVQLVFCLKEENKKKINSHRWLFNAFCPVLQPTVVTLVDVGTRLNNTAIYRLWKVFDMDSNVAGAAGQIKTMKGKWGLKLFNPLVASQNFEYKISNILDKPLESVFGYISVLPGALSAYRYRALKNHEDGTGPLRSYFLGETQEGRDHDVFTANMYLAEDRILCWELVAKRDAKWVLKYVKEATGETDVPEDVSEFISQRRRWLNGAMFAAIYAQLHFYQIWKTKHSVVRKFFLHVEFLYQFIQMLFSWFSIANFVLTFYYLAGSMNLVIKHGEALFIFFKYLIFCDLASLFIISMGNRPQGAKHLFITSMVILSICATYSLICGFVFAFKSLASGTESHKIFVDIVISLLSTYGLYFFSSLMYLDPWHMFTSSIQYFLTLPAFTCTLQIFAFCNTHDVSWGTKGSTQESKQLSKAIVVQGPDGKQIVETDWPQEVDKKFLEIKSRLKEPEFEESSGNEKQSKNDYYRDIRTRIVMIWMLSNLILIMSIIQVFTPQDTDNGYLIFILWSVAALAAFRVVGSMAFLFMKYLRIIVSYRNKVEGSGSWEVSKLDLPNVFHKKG

[4] = Acute toxicity test of oral administration in mice; assay type: in vivo; conditions: both sexes, ICR, mouse, in vivo, po
Method: (§1) In order to investigate the acute toxicity of Phellinus sp. PL3 extract or phellinsin A isolated from the same according to the present invention, the experimental procedure is performed as follows.
(§2) 4-week old specific pathogens free (SPF) ICR mice were adopted in 12 of female and 12 of male mice (3 male and female mice/dose group, respectively) and raised in a breeding room under 12 L/12 D of light kept at temperature of 22±3° C. humidity of 55±10%. The experimental mice were adapted for a week before use. Animal fodder (purchased from Cheil Feed Co. Ltd., for mice and rat uses) and water were provided after sterilized and fed freely.
(§3) The Phellinus sp. PL3 extract and phellinsin A isolated from the same prepared in Examples were made to 50 mg/mL of concentration by using 0.55% Tween 80 solvent and orally administered in 0.04 mL (100 mg/kg), 0.2 mL (500 mg/kg) and 0.4 mL (1,000 mg/kg) per 20 g of body weight. […]
(§4) In addition, the experimental mice were killed, anatomized and examined on inner organs with the naked eyes in 7 days of administration. In a day interval from the 1st day, the body weights were measured to examine whether the Phellinus sp. […]

ICR mice = assay: Acute toxicity test of oral administration in mice; assay type: in vivo; conditions: oral 100, 500 and 1,000 mg/kg once, ICR mice, 7 days
Method: as §1, §2, §3, §4

LDL [5] = assay: Anti-oxidation to LDL by TBARS method (Cu2+-mediated LDL oxidation); assay type: biochemical, human; conditions: read-out: IC50 (anti-oxidant activity to LDL)
Method: The Phellinus sp. PL3 extract and the phellinsin A isolated from the same prepared as described in Examples were examined for their anti-oxidant activity to LDL as follows.
In the present invention, dialdehydes as an oxidative product of unsaturated fatty acids was measured by performing TBARS (thiobarbituric acid-reactive substances) method to investigate the anti-oxidant activities of Phellinus sp. PL3 extract and the phellinsin A isolated from Phellinus sp PL3.
300 mL of human plasma was centrifuged at 100,000×g for 24 hours with an ultracentrifuge to remove a very low density lipoprotein (VLDL)/chylomicron layer floated on the supernatant. The remaining solution was adjusted to 1.063 g/mL of gravity and centrifuged at 100,000×g for 24 hours to separate again 25 mL (1.5-2.5 mg protein/mL) of LDL floated on the supernatant. […]
Then, 10 μL of 0.25 mM CuSO4 was added to the resulting solution, reacted at 37° C. for 4 hours and added with 1 mL of 20% trichloroacetic acid (TCA) solution to stop the reaction. […] The resulting solution was centrifuged at 3,000 rpm for 5 min to separate supernatant and measured the absorbance at 540 nm with a UV-visible spectrophotometer. Finally, the amount of malondialdehyde (MDA) generated by the coloring reaction was determined.
In the experiment using Phellinus sp. […] PL3, the amount of malondialdehyde was quantified by using this standard curve.

Row | Structure (SMILES) | IC50 (DPPH radical scavenging) [µM] | MDA nmol/mg LDL protein ([1]; 1 μM) [nmol/mg LDL protein] | MDA nmol/mg LDL protein ([1]; 2 μM) [nmol/mg LDL protein] | MDA nmol/mg LDL protein ([1]; 5 μM) [nmol/mg LDL protein] | MDA nmol/mg LDL protein ([1]; 10 μM) [nmol/mg LDL protein] | lag time (conjugated dienes) (LDL [2]; 2 μM) [min] | lag time (conjugated dienes) (LDL [2]; 5 μM, monitored up to 240 min) [min] | anti-oxidant activity relative to probucol on macrophage-mediated LDL oxidation ([1]; 2-10 μM, times stronger than probucol) | inhibition of chitin synthase 2 [3] | LD50 at 7 days [4] [mg/kg] | toxicity (clinical symptoms, deaths, body weight, blood tests, autopsy) (ICR mice) | IC50 (LDL [5]) [µM] | Radical scavenging activity (%) (DPPH radical scavenging; 5 min) | Radical scavenging activity (%) (DPPH radical scavenging; 10 min) | Radical scavenging activity (%) (DPPH radical scavenging; 30 min)
1 | Cc1c(C)c2c(c(C)c1O)CCC(C)(C(=O)O)O2 (stereo not shown) [trolox, reference compound] | 18.6 |  |  |  |  |  |  |  |  |  |  |  |  |  | 
2 | CC(C)(Sc1cc(C(C)(C)C)c(O)c(C(C)(C)C)c1)Sc1cc(C(C)(C)C)c(O)c(C(C)(C)C)c1 [Probucol, probucol, reference compound] |  | 209.7 ± 1.7 | 199.1 ± 10.7 | 157.4 ± 2.4 | 145.5 ± 3.9 | 63 | 70 |  |  |  |  |  |  |  | 
3 | O=C1OC(c2ccc(O)c(O)c2)C(C(=O)O)/C1=C\c1ccc(O)c(O)c1 (stereo not shown) [Phellinsin A, phellinsin A] | 1.7 | 167.7 ± 6.2 | 94.2 ± 4.7 | 55.9 ± 2.8 | 39.4 ± 0.9 | 192 | > 240 | 2-3.7 times | highly inhibit | ≥ 1000 | no toxicity | 5.3 | 55 | 87 | 92
